Results: ChEMBL document CHEMBL1140823, “Pyrazolopyridines with potent activity against herpesviruses: effects of C5 substituents on antiviral activity” (Bioorg Med Chem Lett, 2008)

Tests used:
[1] = Cytotoxicity against african green monkey Vero cells; type: cell-based; conditions: chlorocebus sabaeus
[2] = tested on: Human alphaherpesvirus 1; assay: Antiviral activity against HSV1 SC16 in african green monkey Vero cells; type: functional, organism-based; conditions: Human alphaherpesvirus 1, SC16, Vero

Compound | IC50 [2] | CC50 [1]
Fc1ccc(-c2nn3c(NC4CCCC4)cccc3c2-c2ccnc(NC3CCCC3)n2)cc1 | 260 nM | > 160000 nM
Fc1ccc(-c2nn3c(NC4CCCC4)cc(NC4CCCC4)cc3c2-c2ccnc(NC3CCCC3)n2)cc1 | 240 nM | > 40000 nM
COc1ccc(-c2nn3c(SC)cc(NC4CCCC4)cc3c2-c2ccnc(NC3CCCC3)n2)cc1 | 220 nM | > 40000 nM
Fc1ccc(-c2nn3ccc(NC4CCCC4)cc3c2-c2ccnc(NC3CCCC3)n2)cc1 | 530 nM | 18000 nM
Fc1ccc(-c2nn3ccc(N4CCCC4)cc3c2-c2ccnc(NC3CCCC3)n2)cc1 | 1350 nM | > 40000 nM
COc1ccc(-c2nn3c(SC(C)C)cc(NC4CCCC4)cc3c2-c2ccnc(NC3CCCC3)n2)cc1 | 210 nM | > 40000 nM
COCCOc1cc(NC2CCCC2)n2nc(-c3ccc(F)cc3)c(-c3ccnc(NC4CCCC4)n3)c2c1 | 320 nM | > 40000 nM
COCCNc1ccn2nc(-c3ccc(F)cc3)c(-c3ccnc(NC4CCCC4)n3)c2c1 | 830 nM | > 40000 nM
COc1ccc(-c2nn3c(Sc4ccccc4)cc(NC4CCCC4)cc3c2-c2ccnc(NC3CCCC3)n2)cc1 | 1800 nM | > 40000 nM
Fc1ccc(-c2nn3ccc(N4CCOCC4)cc3c2-c2ccnc(NC3CCCC3)n2)cc1 | 3630 nM | 34000 nM
COc1ccc(-c2nn3ccc(Cl)cc3c2-c2ccnc(NC3CCCC3)n2)cc1 | 4270 nM | > 40000 nM
c1cc(-c2c(-c3ccc(OCC4CC4)cc3)nn3ccc(NC4CCCC4)cc23)nc(NC2CCCC2)n1 | 330 nM | > 40000 nM
CC(C)COc1ccc(-c2nn3ccc(NC4CCCC4)cc3c2-c2ccnc(NC3CCCC3)n2)cc1 | 560 nM | 27000 nM
CCSc1cc(NC2CCCC2)cc2c(-c3ccnc(NC4CCCC4)n3)c(-c3ccc(F)cc3)nn12 | 70 nM | > 40000 nM
CCSc1cc(NC2CCCC2)cc2c(-c3ccnc(NC4CCCC4)n3)c(-c3ccc(OC)cc3)nn12 | 40 nM | > 40000 nM
COc1ccc(-c2nn3c(NC4CCCC4)cccc3c2-c2ccnc(NC3CCCC3)n2)cc1 | 220 nM | > 100000 nM
Fc1ccc(-c2nn3c(NC4CCCC4)cc(OCC4CC4)cc3c2-c2ccnc(NC3CCCC3)n2)cc1 | 170 nM | > 40000 nM
COCCOc1cc(NC2CCCC2)cc2c(-c3ccnc(NC4CCCC4)n3)c(-c3ccc(F)cc3)nn12 | 80 nM | 32500 nM
COc1ccc(-c2nn3ccc(NC4CCCC4)cc3c2-c2ccnc(NC3CCCC3)n2)cc1 | 210 nM | 12300 nM
c1cc(NC2CCCC2)n2nc(-c3ccc(OCC4CC4)cc3)c(-c3ccnc(NC4CCCC4)n3)c2c1 | 170 nM | > 40000 nM
Nc1nc2c(ncn2COCCO)c(=O)[nH]1 [ACYCLOVIR] | 390 nM | > 200000 nM

Further lines, with some results ahead:

IC50 [2] | Compound | CC50 [1]
370 nM | CC(C)Sc1cc(NC2CCCC2)cc2c(-c3ccnc(NC4CCCC4)n3)c(-c3ccc(F)cc3)nn12 | > 40000 nM
7000 nM | Fc1ccc(-c2nn3c(Cl)cc(Cl)cc3c2-c2ccnc(NC3CCCC3)n2)cc1 | > 40000 nM
1360 nM | Fc1ccc(-c2nn3c(Cl)cc(NC4CCCC4)cc3c2-c2ccnc(NC3CCCC3)n2)cc1 | > 40000 nM
> 36000 nM | COc1ccn2nc(-c3ccc(F)cc3)c(-c3ccnc(NC4CCCC4)n3)c2c1 | > 36000 nM
330 nM | Fc1ccc(-c2nn3c(NC4CC4)cc(Cl)cc3c2-c2ccnc(NC3CCCC3)n2)cc1 | > 40000 nM
550 nM | CC(C)Nc1cc(NC(C)C)n2nc(-c3ccc(F)cc3)c(-c3ccnc(NC4CCCC4)n3)c2c1 | > 40000 nM
180 nM | Fc1ccc(-c2nn3c(N4CCOCC4)cc(Cl)cc3c2-c2ccnc(NC3CCCC3)n2)cc1 | > 40000 nM
150 nM | Fc1ccc(-c2nn3c(N4CCCCC4)cc(Cl)cc3c2-c2ccnc(NC3CCCC3)n2)cc1 | > 40000 nM
5300 nM | COc1ccc(-c2nn3c(Cl)cc(Cl)cc3c2-c2ccnc(NC3CCCC3)n2)cc1 | > 40000 nM
220 nM | COc1ccc(-c2nn3c(NC4CCCC4)cc(Cl)cc3c2-c2ccnc(NC3CCCC3)n2)cc1 | > 40000 nM
340 nM | COc1ccc(-c2nn3c(NC4CC4)cc(Cl)cc3c2-c2ccnc(NC3CCCC3)n2)cc1 | > 40000 nM
920 nM | COc1ccc(-c2nn3ccc(NC(C)C)cc3c2-c2ccnc(NC3CCCC3)n2)cc1 | > 40000 nM
2730 nM | CC(C)Nc1ccn2nc(-c3ccc(F)cc3)c(-c3ccnc(NC4CCCC4)n3)c2c1 | > 40000 nM
380 nM | CN(C)c1cc(Cl)cc2c(-c3ccnc(NC4CCCC4)n3)c(-c3ccc(F)cc3)nn12 | > 40000 nM
330 nM | Fc1ccc(-c2nn3c(NC4CCCC4)cc(Cl)cc3c2-c2ccnc(NC3CCCC3)n2)cc1 | > 40000 nM
170 nM | CSc1cc(NC2CCCC2)cc2c(-c3ccnc(NC4CCCC4)n3)c(-c3ccc(F)cc3)nn12 | > 40000 nM
130 nM | COc1cc(NC2CCCC2)n2nc(-c3ccc(F)cc3)c(-c3ccnc(NC4CCCC4)n3)c2c1 | > 40000 nM
160 nM | CCOc1cc(NC2CCCC2)cc2c(-c3ccnc(NC4CCCC4)n3)c(-c3ccc(F)cc3)nn12 | 20600 nM
> 5000 nM | Fc1ccc(-c2nn3ccc(Cl)cc3c2-c2ccnc(NC3CCCC3)n2)cc1 | > 40000 nM
5070 nM | Nc1ccn2nc(-c3ccc(F)cc3)c(-c3ccnc(NC4CCCC4)n3)c2c1 | 20000 nM
70 nM | CC(C)Oc1cc(NC2CCCC2)n2nc(-c3ccc(F)cc3)c(-c3ccnc(NC4CCCC4)n3)c2c1 | > 40000 nM
1500 nM | CC(C)Nc1cc(Cl)cc2c(-c3ccnc(NC4CCCC4)n3)c(-c3ccc(F)cc3)nn12 | > 40000 nM
